In patent US11878970B2, “Allosteric chromenone inhibitors of phosphoinositide 3-kinase (PI3K) for the treatment of disease” (Petra Pharma Corporation, priority 2021, dated 2024):

How the values were obtained:
[1] = biological target: T1, PI3K-α (PIK3CA) wild-type (WT), p110α/p85α complex (Homo sapiens, UniProt P42336); assay: PI3K-alpha kinase (PIK3CA) biochemical activity, ADP-Glo, wild-type; conditions: Soy PI lipid substrate
T1 construct: Recombinant, catalytically active human full length PIK3KA Wild-type and H1047R mutant; 6×His (N); purchased EMD Millipore Sigma 14-602M
Summary of the method: (§1)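 ADP formation measured by ADP-Glo luminescence after reaction at 27 °C to about 10% ATP turnover, using 20 uM ATP, 50 uM PIP2diC8 or soy PI lipid, HEPES pH 7.4 with MgCl2. Enzyme (1-5 nM WT or H1047R p110α/p85α) and compound preincubated 1 h first; 10-point 1:3 curves fitted four-parameter for IC50.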

[2] = biological target: PI3K-α (PIK3CA) in MDA-MB-453 cells (Homo sapiens, UniProt P42336); assay: PI3K-alpha kinase (PIK3CA) in vitro cell based assay, MDA-MB-453 cells, SureFire Ultra AlphaLisa; conditions: read-out: PI3K-α (PIK3CA) in vitro cell based assay IC50
Sequence of PI3K-α (PIK3CA) in MDA-MB-453 cells (P27986 2-724): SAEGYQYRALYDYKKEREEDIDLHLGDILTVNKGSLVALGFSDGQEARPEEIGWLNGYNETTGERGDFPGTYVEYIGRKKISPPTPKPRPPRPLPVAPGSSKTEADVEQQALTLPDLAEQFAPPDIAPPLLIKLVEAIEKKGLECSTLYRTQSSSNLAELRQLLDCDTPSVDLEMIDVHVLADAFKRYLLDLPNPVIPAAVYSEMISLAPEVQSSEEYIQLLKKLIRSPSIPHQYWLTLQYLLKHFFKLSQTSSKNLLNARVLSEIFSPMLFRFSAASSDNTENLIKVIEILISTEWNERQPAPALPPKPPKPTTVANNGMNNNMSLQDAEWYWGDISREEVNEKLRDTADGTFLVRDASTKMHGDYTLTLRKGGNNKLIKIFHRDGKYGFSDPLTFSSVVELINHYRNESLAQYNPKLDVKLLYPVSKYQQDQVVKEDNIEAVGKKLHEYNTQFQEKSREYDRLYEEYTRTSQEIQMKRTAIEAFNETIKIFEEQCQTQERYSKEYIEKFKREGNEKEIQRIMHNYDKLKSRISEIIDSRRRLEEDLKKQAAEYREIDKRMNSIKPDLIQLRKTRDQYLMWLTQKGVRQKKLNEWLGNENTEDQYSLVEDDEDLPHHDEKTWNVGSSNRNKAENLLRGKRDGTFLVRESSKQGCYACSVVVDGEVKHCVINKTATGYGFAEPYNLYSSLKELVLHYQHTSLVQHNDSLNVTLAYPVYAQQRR
Sequence of PI3K-α (PIK3CA) in MDA-MB-453 cells (P42336 whole entry): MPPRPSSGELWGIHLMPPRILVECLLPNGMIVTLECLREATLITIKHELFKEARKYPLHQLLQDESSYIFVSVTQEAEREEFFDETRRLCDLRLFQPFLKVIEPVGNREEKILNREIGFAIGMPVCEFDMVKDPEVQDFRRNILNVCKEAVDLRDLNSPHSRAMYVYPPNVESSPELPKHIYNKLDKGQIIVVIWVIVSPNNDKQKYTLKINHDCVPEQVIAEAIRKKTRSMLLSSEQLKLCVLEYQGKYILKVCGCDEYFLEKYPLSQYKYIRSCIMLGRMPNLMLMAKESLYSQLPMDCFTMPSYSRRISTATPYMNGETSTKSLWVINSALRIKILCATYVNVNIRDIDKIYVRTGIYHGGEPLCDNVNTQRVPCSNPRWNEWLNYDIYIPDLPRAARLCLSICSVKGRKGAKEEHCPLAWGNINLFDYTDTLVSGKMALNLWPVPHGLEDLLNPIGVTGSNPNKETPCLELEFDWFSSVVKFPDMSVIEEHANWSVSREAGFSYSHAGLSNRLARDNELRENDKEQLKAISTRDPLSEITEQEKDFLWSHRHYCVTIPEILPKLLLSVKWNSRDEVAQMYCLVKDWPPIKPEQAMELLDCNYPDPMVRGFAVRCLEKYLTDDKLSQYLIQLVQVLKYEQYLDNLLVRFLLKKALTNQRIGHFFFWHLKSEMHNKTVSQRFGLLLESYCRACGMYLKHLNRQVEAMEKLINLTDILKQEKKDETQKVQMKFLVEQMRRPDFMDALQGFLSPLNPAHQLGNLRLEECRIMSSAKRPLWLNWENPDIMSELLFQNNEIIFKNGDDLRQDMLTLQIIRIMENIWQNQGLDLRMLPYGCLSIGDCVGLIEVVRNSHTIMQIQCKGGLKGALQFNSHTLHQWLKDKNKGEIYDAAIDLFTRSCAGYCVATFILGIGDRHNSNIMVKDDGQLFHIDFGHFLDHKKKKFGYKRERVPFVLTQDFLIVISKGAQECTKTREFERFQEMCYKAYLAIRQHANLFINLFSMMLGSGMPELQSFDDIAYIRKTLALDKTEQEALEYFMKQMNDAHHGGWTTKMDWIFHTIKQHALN
Summary of the method: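 Cells treated 3 h in serum-free MEM with 1 μg/mL insulin, 10-point 1:3 series in 0.3% DMSO, then lysed for SureFire Ultra AlphaLisa read-out. Inhibition normalized to DMSO (max) and 1 μM GDC-0032 (min); duplicate averages fitted by 4-parameter logistic for relative IC50.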

[3] = biological target: T2, PI3K-α (PIK3CA) H1047R mutant, p110α/p85α complex (Homo sapiens, UniProt P42336, H1047R); assay: PI3K-alpha kinase (PIK3CA) biochemical activity, ADP-Glo, H1047R mutant; conditions: Soy PI lipid substrate
T2 construct: Recombinant, catalytically active human full length PIK3KA Wild-type and H1047R mutant; 6×His (N); purchased EMD Millipore Sigma 14-792M
T2 sequence (P42336 whole entry H1047R): as the sequence (P42336 whole entry) above, with H1047R counted along it
T2 sequence (P27986 whole entry partner): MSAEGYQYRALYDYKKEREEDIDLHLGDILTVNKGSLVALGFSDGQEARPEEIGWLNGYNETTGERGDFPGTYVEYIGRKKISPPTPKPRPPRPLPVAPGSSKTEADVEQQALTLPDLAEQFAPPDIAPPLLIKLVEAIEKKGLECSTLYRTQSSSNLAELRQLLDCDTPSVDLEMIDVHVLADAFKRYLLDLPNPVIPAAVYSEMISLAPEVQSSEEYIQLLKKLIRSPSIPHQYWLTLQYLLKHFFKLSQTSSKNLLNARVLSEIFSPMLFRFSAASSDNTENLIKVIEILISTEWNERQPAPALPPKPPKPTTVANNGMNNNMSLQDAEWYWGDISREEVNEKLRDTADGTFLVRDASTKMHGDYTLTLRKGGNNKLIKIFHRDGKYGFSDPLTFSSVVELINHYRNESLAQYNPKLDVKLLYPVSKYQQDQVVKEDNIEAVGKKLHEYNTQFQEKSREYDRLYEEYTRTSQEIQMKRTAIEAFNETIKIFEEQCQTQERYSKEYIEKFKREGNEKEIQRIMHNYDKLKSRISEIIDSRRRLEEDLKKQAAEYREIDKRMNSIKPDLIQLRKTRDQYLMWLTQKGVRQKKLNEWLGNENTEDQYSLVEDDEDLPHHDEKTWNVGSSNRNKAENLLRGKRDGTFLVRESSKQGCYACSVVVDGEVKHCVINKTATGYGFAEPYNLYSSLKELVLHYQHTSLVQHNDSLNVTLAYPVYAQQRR
Summary of the method: as §1

SMILES	IC50 [1] [nM]	IC50 [2] [nM]	IC50 [3] [nM]
CC(Nc1ccc(Cl)nc1C(=O)O)c1cc(C(F)(F)F)cc2c(=O)cc(-c3ccc4c(cnn4C)c3)oc12 (single isomer, unassigned) [Example 168, 6-Chloro-3-[1-[2-(1-methylindazol-5-yl)-4-oxo-6-(trifluoromethyl)chromen-8-yl]ethylamino]pyridine-2-carboxylic acid]	< 500	50 to 100	< 500
Cc1cc(C(C)Nc2ccc(Cl)nc2C(=O)O)c2oc(-c3nn(C)c4ccccc34)c(C)c(=O)c2c1 (single isomer, unassigned) [Example 170, 6-Chloro-3-[1-[3,6-dimethyl-2-(1-methylindazol-3-yl)-4-oxo-chromen-8-yl]ethylamino]pyridine-2-carboxylic acid]	< 500	< 50	< 500
Cc1cc(C(C)Nc2cccc(F)c2C(=O)O)c2oc(-c3ccc4nn(C)cc4c3)cc(=O)c2c1 (single isomer, unassigned) [Example 171, 2-Fluoro-6-[1-[6-methyl-2-(2-methylindazol-5-yl)-4-oxo-chromen-8-yl]ethylamino]benzoic acid]	1000 to 5000	> 500	1000 to 5000
Cc1cc(C(C)Nc2ccc(Cl)nc2C(=O)O)c2oc(-c3ccc4nc(C)cn4c3)c(C)c(=O)c2c1 (single isomer, unassigned) [Example 178, 6-Chloro-3-[1-[3,6-dimethyl-2-(2-methylimidazo[1,2-a]pyridin-6-yl)-4-oxo-chromen-8-yl]ethylamino]pyridine-2-carboxylic acid]	500 to 1000	50 to 100	< 500
Cc1cc(C(C)Nc2ccccc2C(=O)O)c2oc(-c3cc4cccnc4cn3)cc(=O)c2c1 (single isomer, unassigned) [Example 187, 2-[1-[6-Methyl-2-(1,7-naphthyridin-6-yl)-4-oxo-chromen-8-yl]ethylamino]benzoic acid]	1000 to 5000	< 50	< 500
Cc1cc(C(C)Nc2ccc(Cl)nc2C(=O)O)c2oc(-c3cc(C)c4nn(C)cc4c3)cc(=O)c2c1 (single isomer, unassigned) [Example 188, 6-Chloro-3-[1-[2-(2,7-dimethylindazol-5-yl)-6-methyl-4-oxo-chromen-8-yl]ethylamino]pyridine-2-carboxylic acid]	500 to 1000	< 50	< 500
Cc1cc(C(C)Nc2cccc(F)c2C(=O)O)c2oc(-c3nn(C)c4ccccc34)cc(=O)c2c1 (single isomer, unassigned) [Example 189, 2-Fluoro-6-[1-[6-methyl-2-(1-methylindazol-3-yl)-4-oxo-chromen-8-yl]ethylamino]benzoic acid]	500 to 1000	50 to 100	< 500
Cc1cc(C(C)Nc2cccc(F)c2C(=O)O)c2oc(-c3cc(C)c4nn(C)cc4c3)cc(=O)c2c1 (single isomer, unassigned) [Example 190, 2-[1-[2-(2,7-Dimethylindazol-5-yl)-6-methyl-4-oxo-chromen-8-yl]ethylamino]-6-fluoro-benzoic acid]	500 to 1000	50 to 100	< 500
Cc1cc(-c2cc(=O)c3cc(C(F)(F)F)cc(C(C)Nc4ccc(Cl)nc4C(=O)O)c3o2)cc2cn(C)nc12 (single isomer, unassigned) [Example 191, 6-Chloro-3-[1-[2-(2,7-dimethylindazol-5-yl)-4-oxo-6-(trifluoromethyl)chromen-8-yl]ethylamino]pyridine-2-carboxylic acid]	500 to 1000	100 to 500	< 500
Cc1cc(-c2cc(=O)c3cc(C(F)(F)F)cc(C(C)Nc4ccc(Cl)nc4C(=O)O)c3o2)cc2cn(C)nc12 (single isomer, unassigned) [Example 192, 6-Chloro-3-[1-[2-(2,7-dimethylindazol-5-yl)-4-oxo-6-(trifluoromethyl)chromen-8-yl]ethylamino]pyridine-2-carboxylic acid]	500 to 1000	> 500	500 to 1000
CC(Nc1ccc(Cl)nc1C(=O)O)c1cc(C(F)(F)F)cc2c(=O)cc(-c3cc(Cl)c4nn(C)cc4c3)oc12 (single isomer, unassigned) [Example 193, 6-Chloro-3-[1-[2-(7-chloro-2-methyl-indazol-5-yl)-4-oxo-6-(trifluoromethyl)chromen-8-yl]ethylamino]pyridine-2-carboxylic acid]	500 to 1000	< 50	< 500
Cc1cc(C(C)Nc2ccccc2C(=O)O)c2oc(-c3ccc4nc(C#N)ccc4c3)cc(=O)c2c1 (single isomer, unassigned) [Example 207, 2-[1-[2-(2-Cyano-6-quinolyl)-6-methyl-4-oxo-chromen-8-yl]ethylamino]benzoic acid]	500 to 1000	50 to 100	< 500
Cc1cc(C(C)Nc2ccc(Cl)nc2C(=O)O)c2oc(-c3ccc4cc[nH]c4n3)cc(=O)c2c1 (single isomer, unassigned) [Example 215, 6-Chloro-3-[1-[6-methyl-4-oxo-2-(1H-pyrrolo[2,3-b]pyridin-6-yl)chromen-8-yl]ethylamino]pyridine-2-carboxylic acid]	500 to 1000	< 50	< 500
Cc1cc(C(C)Nc2ccc(Cl)nc2C(=O)O)c2oc(-c3ccc4cc[nH]c4n3)cc(=O)c2c1 (single isomer, unassigned) [Example 216, 6-Chloro-3-[1-[6-methyl-4-oxo-2-(1H-pyrrolo[2,3-b]pyridin-6-yl)chromen-8-yl]ethylamino]pyridine-2-carboxylic acid]	> 10000	> 500	1000 to 5000
Cc1cc(C(C)Nc2ccc(Cl)nc2C(=O)O)c2oc(-c3ccc4c(cnn4C)c3)cc(=O)c2c1 (single isomer, unassigned) [Example 217, 6-Chloro-3-[1-[6-methyl-2-(1-methylindazol-5-yl)-4-oxo-chromen-8-yl]ethylamino]pyridine-2-carboxylic acid]	1000 to 5000	> 500	1000 to 5000
Cc1cc(C(C)Nc2ccc(Cl)nc2C(=O)O)c2oc(-c3ccc4c(cnn4C)c3)cc(=O)c2c1 (single isomer, unassigned) [Example 218, 6-Chloro-3-[1-[6-methyl-2-(1-methylindazol-5-yl)-4-oxo-chromen-8-yl]ethylamino]pyridine-2-carboxylic acid]	< 500	< 50	< 500
Cc1cc(C(C)Nc2ccc(Cl)nc2C(=O)O)c2oc(-c3ccc4cnn(C)c4c3)cc(=O)c2c1 (single isomer, unassigned) [Example 219, 6-Chloro-3-[1-[6-methyl-2-(1-methylindazol-6-yl)-4-oxo-chromen-8-yl]ethylamino]pyridine-2-carboxylic acid]	1000 to 5000	> 500	1000 to 5000
Cc1cc(C(C)Nc2ccc(Cl)nc2C(=O)O)c2oc(-c3ccc4cnn(C)c4c3)cc(=O)c2c1 (single isomer, unassigned) [Example 220, 6-Chloro-3-[1-[6-methyl-2-(1-methylindazol-6-yl)-4-oxo-chromen-8-yl]ethylamino]pyridine-2-carboxylic acid]	< 500	< 50	< 500
Cc1cc(C(C)Nc2cccc(F)c2C(=O)O)c2oc(-c3ccc4cnn(C)c4c3)cc(=O)c2c1 (single isomer, unassigned) [Example 221, 2-fluoro-6-[1-[6-methyl-2-(1-methylindazol-6-yl)-4-oxo-chromen-8-yl]ethylamino]benzoic acid]	500 to 1000	> 500	1000 to 5000
Cc1cc(C(C)Nc2cccc(F)c2C(=O)O)c2oc(-c3ccc4cnn(C)c4c3)cc(=O)c2c1 (single isomer, unassigned) [Example 222, 2-fluoro-6-[1-[6-methyl-2-(1-methylindazol-6-yl)-4-oxo-chromen-8-yl]ethylamino]benzoic acid]	500 to 1000	100 to 500	< 500
Cc1cc(C(C)Nc2ccc(Cl)nc2C(=O)O)c2oc(-c3cc4ccccc4[nH]3)cc(=O)c2c1 (single isomer, unassigned) [Example 223, 6-Chloro-3-[1-[2-(1H-indol-2-yl)-6-methyl-4-oxo-chromen-8-yl]ethylamino]pyridine-2-carboxylic acid]	500 to 1000	< 50	< 500
Cc1cc(C(C)Nc2ccc(Cl)nc2C(=O)O)c2oc(-c3ccc4c(c3)c(C)nn4C)cc(=O)c2c1 (single isomer, unassigned) [Example 224, 6-Chloro-3-[1-[2-(1,3-dimethylindazol-5-yl)-6-methyl-4-oxo-chromen-8-yl]ethylamino]pyridine-2-carboxylic acid]	< 500	< 50	< 500
Cc1cc(C(C)Nc2ccccc2C(=O)O)c2oc(-c3ccc4ncccc4n3)cc(=O)c2c1 (single isomer, unassigned) [Example 252, 2-[1-[6-Methyl-2-(1,5-naphthyridin-2-yl)-4-oxo-chromen-8-yl]ethylamino]benzoic acid]	1000 to 5000	< 50	500 to 1000
